Patent US12691112B2, “FGFR tyrosine kinase inhibitors for the treatment of urothelial carcinoma” (Janssen Pharmaceutica NV, priority 2019, dated 2026)
Where two headings read alike, the source gives them in different places.

System: subjects with metastatic or surgically unresectable urothelial cancer
Settings: all-causality

What does the source list for `COc1cc(OC)cc(N(CCNC(C)C)c2ccc3ncc(-c4cnn(C)c4)nc3c2)c1` [erdafitinib, N-(3,5-dimethoxy-phenyl)-N′-(1-methylethyl)-N-[3-(1-methyl-1H-pyrazol-4-yl)quinoxalin-6-yl]ethane-1,2-diamine]?
Conjunctivitis, grade ≥ 3 (6 mg continuous, n = 78): 1 no.; Constipation, any grade (6 mg continuous, n = 78): 20 no.; Constipation, grade 1 (6 mg continuous, n = 78): 10 no.; Constipation, grade 2 (6 mg continuous, n = 78): 10 no.; Constipation, grade ≥ 3 (6 mg continuous, n = 78): 0 no.; Decreased appetite, any grade (6 mg continuous, n = 78): 29 no.; Decreased appetite, grade 1 (6 mg continuous, n = 78): 12 no.; Decreased appetite, grade 2 (6 mg continuous, n = 78): 13 no.; Decreased appetite, grade ≥ 3 (6 mg continuous, n = 78): 4 no.; Diarrhea, any grade (6 mg continuous, n = 78): 39 no.; Diarrhea, grade 1 (6 mg continuous, n = 78): 24 no.; Diarrhea, grade 2 (6 mg continuous, n = 78): 15 no.; Diarrhea, grade ≥ 3 (6 mg continuous, n = 78): 0 no.; Dry eye, any grade (6 mg continuous, n = 78): 6 no.; Dry eye, grade 1 (6 mg continuous, n = 78): 3 no.; Dry eye, grade 2 (6 mg continuous, n = 78): 2 no.; Dry eye, grade ≥ 3 (6 mg continuous, n = 78): 1 no.; Dry mouth, any grade (6 mg continuous, n = 78): 31 no.; Dry mouth, grade 1 (6 mg continuous, n = 78): 23 no.; Dry mouth, grade 2 (6 mg continuous, n = 78): 6 no.; Dry mouth, grade ≥ 3 (6 mg continuous, n = 78): 2 no.; Dry skin, any grade (6 mg continuous, n = 78): 18 no.; Dry skin, grade 1 (6 mg continuous, n = 78): 10 no.; Dry skin, grade 2 (6 mg continuous, n = 78): 8 no.; Dry skin, grade ≥ 3 (6 mg continuous, n = 78): 0 no.; Dysgeusia, any grade (6 mg continuous, n = 78): 10 no.; Dysgeusia, grade 1 (6 mg continuous, n = 78): 6 no.; Dysgeusia, grade 2 (6 mg continuous, n = 78): 4 no.; Dysgeusia, grade ≥ 3 (6 mg continuous, n = 78): 0 no.; Dyspepsia, any grade (6 mg continuous, n = 78): 9 no.; Dyspepsia, grade 1 (6 mg continuous, n = 78): 6 no.; Dyspepsia, grade 2 (6 mg continuous, n = 78): 3 no.; Dyspepsia, grade ≥ 3 (6 mg continuous, n = 78): 0 no.; Dyspnea, any grade (6 mg continuous, n = 78): 6 no.; Dyspnea, grade 1 (6 mg continuous, n = 78): 1 no.; Dyspnea, grade 2 (6 mg continuous, n = 78): 3 no.; Dyspnea, grade ≥ 3 (6 mg continuous, n = 78): 2 no.; Fatigue, any grade (6 mg continuous, n = 78): 20 no.; Fatigue, grade 1 (6 mg continuous, n = 78): 8 no.; Fatigue, grade 2 (6 mg continuous, n = 78): 8 no.; Fatigue, grade ≥ 3 (6 mg continuous, n = 78): 4 no.; Hand-foot syndrome, any grade (6 mg continuous, n = 78): 13 no.; Hand-foot syndrome, grade 1 (6 mg continuous, n = 78): 4 no.; Hand-foot syndrome, grade 2 (6 mg continuous, n = 78): 9 no.; Hand-foot syndrome, grade ≥ 3 (6 mg continuous, n = 78): 0 no.; Hematuria, any grade (6 mg continuous, n = 78): 6 no.; Hematuria, grade 1 (6 mg continuous, n = 78): 5 no.; Hematuria, grade 2 (6 mg continuous, n = 78): 0 no.; Hematuria, grade ≥ 3 (6 mg continuous, n = 78): 1 no.; Hyperphosphatemia, any grade (6 mg continuous, n = 78): 52 no.; Hyperphosphatemia, grade 1 (6 mg continuous, n = 78): 44 no.; Hyperphosphatemia, grade 2 (6 mg continuous, n = 78): 8 no.; Hyperphosphatemia, grade ≥ 3 (6 mg continuous, n = 78): 0 no.; Hypomagnesemia, any grade (6 mg continuous, n = 78): 6 no.; Hypomagnesemia, grade 1 (6 mg continuous, n = 78): 6 no.; Hypomagnesemia, grade 2 (6 mg continuous, n = 78): 0 no.; Hypomagnesemia, grade ≥ 3 (6 mg continuous, n = 78): 0 no.; Hyponatremia, any grade (6 mg continuous, n = 78): 7 no.; Hyponatremia, grade 1 (6 mg continuous, n = 78): 2 no.; Hyponatremia, grade 2 (6 mg continuous, n = 78): 0 no.; Hyponatremia, grade ≥ 3 (6 mg continuous, n = 78): 5 no.; Insomnia, any grade (6 mg continuous, n = 78): 8 no.; Insomnia, grade 1 (6 mg continuous, n = 78): 4 no.; Insomnia, grade 2 (6 mg continuous, n = 78): 2 no.; Insomnia, grade ≥ 3 (6 mg continuous, n = 78): 2 no.; Lacrimation increased, any grade (6 mg continuous, n = 78): 13 no.; Lacrimation increased, grade 1 (6 mg continuous, n = 78): 10 no.; Lacrimation increased, grade 2 (6 mg continuous, n = 78): 3 no.; Lacrimation increased, grade ≥ 3 (6 mg continuous, n = 78): 0 no.; Nail dystrophy, any grade (6 mg continuous, n = 78): 7 no.; Nail dystrophy, grade 1 (6 mg continuous, n = 78): 6 no.; Nail dystrophy, grade 2 (6 mg continuous, n = 78): 1 no.; Nail dystrophy, grade ≥ 3 (6 mg continuous, n = 78): 0 no.; Nausea, any grade (6 mg continuous, n = 78): 16 no.; Nausea, grade 1 (6 mg continuous, n = 78): 11 no.; Nausea, grade 2 (6 mg continuous, n = 78): 4 no.; Nausea, grade ≥ 3 (6 mg continuous, n = 78): 1 no.; Onycholysis, any grade (6 mg continuous, n = 78): 13 no.; Onycholysis, grade 1 (6 mg continuous, n = 78): 2 no.; Onycholysis, grade 2 (6 mg continuous, n = 78): 6 no.; Onycholysis, grade ≥ 3 (6 mg continuous, n = 78): 5 no.; Onychomadesis, any grade (6 mg continuous, n = 78): 8 no.; Onychomadesis, grade 1 (6 mg continuous, n = 78): 2 no.; Onychomadesis, grade 2 (6 mg continuous, n = 78): 6 no.; Onychomadesis, grade ≥ 3 (6 mg continuous, n = 78): 0 no.; Oropharyngeal pain, any grade (6 mg continuous, n = 78): 8 no.; Oropharyngeal pain, grade 1 (6 mg continuous, n = 78): 5 no.; Oropharyngeal pain, grade 2 (6 mg continuous, n = 78): 3 no.; Oropharyngeal pain, grade ≥ 3 (6 mg continuous, n = 78): 0 no.; Pain in extremity, any grade (6 mg continuous, n = 78): 9 no.; Pain in extremity, grade 1 (6 mg continuous, n = 78): 2 no.; Pain in extremity, grade 2 (6 mg continuous, n = 78): 6 no.; Pain in extremity, grade ≥ 3 (6 mg continuous, n = 78): 1 no.; Paronychia, any grade (6 mg continuous, n = 78): 12 no.; Paronychia, grade 1 (6 mg continuous, n = 78): 2 no.; Paronychia, grade 2 (6 mg continuous, n = 78): 10 no.; Paronychia, grade ≥ 3 (6 mg continuous, n = 78): 0 no.; Peripheral edema, any grade (6 mg continuous, n = 78): 6 no.; Peripheral edema, grade 1 (6 mg continuous, n = 78): 2 no.; Peripheral edema, grade 2 (6 mg continuous, n = 78): 3 no.; Peripheral edema, grade ≥ 3 (6 mg continuous, n = 78): 1 no.; Pyrexia, any grade (6 mg continuous, n = 78): 14 no.; Pyrexia, grade 1 (6 mg continuous, n = 78): 8 no.; Pyrexia, grade 2 (6 mg continuous, n = 78): 3 no.; Pyrexia, grade ≥ 3 (6 mg continuous, n = 78): 3 no.; Retinal detachment, any grade (6 mg continuous, n = 78): 8 no.; Retinal detachment, grade 1 (6 mg continuous, n = 78): 5 no.; Retinal detachment, grade 2 (6 mg continuous, n = 78): 3 no.; Retinal detachment, grade ≥ 3 (6 mg continuous, n = 78): 0 no.; Stomatitis, any grade (6 mg continuous, n = 78): 33 no.; Stomatitis, grade 1 (6 mg continuous, n = 78): 13 no.; Stomatitis, grade 2 (6 mg continuous, n = 78): 13 no.; Stomatitis, grade ≥ 3 (6 mg continuous, n = 78): 7 no.; Urinary tract infection, any grade (6 mg continuous, n = 78): 13 no.; Urinary tract infection, grade 1 (6 mg continuous, n = 78): 0 no.; Urinary tract infection, grade 2 (6 mg continuous, n = 78): 9 no.; Urinary tract infection, grade ≥ 3 (6 mg continuous, n = 78): 4 no.; Vision blurred, any grade (6 mg continuous, n = 78): 5 no.; Vision blurred, grade 1 (6 mg continuous, n = 78): 3 no.; Vision blurred, grade 2 (6 mg continuous, n = 78): 1 no.; Vision blurred, grade ≥ 3 (6 mg continuous, n = 78): 1 no.; Vomiting, any grade (6 mg continuous, n = 78): 11 no.; Vomiting, grade 1 (6 mg continuous, n = 78): 9 no.; Vomiting, grade 2 (6 mg continuous, n = 78): 2 no.; Vomiting, grade ≥ 3 (6 mg continuous, n = 78): 0 no.; Weight decreased, any grade (6 mg continuous, n = 78): 8 no.; Weight decreased, grade 1 (6 mg continuous, n = 78): 4 no.; Weight decreased, grade 2 (6 mg continuous, n = 78): 2 no.; Weight decreased, grade ≥ 3 (6 mg continuous, n = 78): 2 no.; Abdominal pain, any grade (8 mg continuous, n = 99): 8 no.; Abdominal pain, grade 1 (8 mg continuous, n = 99): 5 no.; Abdominal pain, grade 2 (8 mg continuous, n = 99): 2 no.; Abdominal pain, grade ≥ 3 (8 mg continuous, n = 99): 1 no.; Alanine aminotransferase increased, any grade (8 mg continuous, n = 99): 17 no.; Alanine aminotransferase increased, grade 1 (8 mg continuous, n = 99): 13 no.; Alanine aminotransferase increased, grade 2 (8 mg continuous, n = 99): 2 no.; Alanine aminotransferase increased, grade ≥ 3 (8 mg continuous, n = 99): 2 no.; Alopecia, any grade (8 mg continuous, n = 99): 29 no.; Alopecia, grade 1 (8 mg continuous, n = 99): 23 no.; Alopecia, grade 2 (8 mg continuous, n = 99): 6 no.; Alopecia, grade ≥ 3 (8 mg continuous, n = 99): 0 no.; Anemia, any grade (8 mg continuous, n = 99): 20 no.; Anemia, grade 1 (8 mg continuous, n = 99): 9 no.; Anemia, grade 2 (8 mg continuous, n = 99): 7 no.; Anemia, grade ≥ 3 (8 mg continuous, n = 99): 4 no.; Arthralgia, any grade (8 mg continuous, n = 99): 8 no.; Arthralgia, grade 1 (8 mg continuous, n = 99): 5 no.; Arthralgia, grade 2 (8 mg continuous, n = 99): 3 no.; Arthralgia, grade ≥ 3 (8 mg continuous, n = 99): 0 no.; Aspartate aminotransferase increased, any grade (8 mg continuous, n = 99): 10 no.; Aspartate aminotransferase increased, grade 1 (8 mg continuous, n = 99): 8 no.; Aspartate aminotransferase increased, grade 2 (8 mg continuous, n = 99): 2 no.; Aspartate aminotransferase increased, grade ≥ 3 (8 mg continuous, n = 99): 0 no.; Asthenia, any grade (8 mg continuous, n = 99): 20 no.; Asthenia, grade 1 (8 mg continuous, n = 99): 2 no.; Asthenia, grade 2 (8 mg continuous, n = 99): 11 no.; Asthenia, grade ≥ 3 (8 mg continuous, n = 99): 7 no.; Back pain, any grade (8 mg continuous, n = 99): 5 no.; Back pain, grade 1 (8 mg continuous, n = 99): 4 no.; Back pain, grade 2 (8 mg continuous, n = 99): 1 no.; Back pain, grade ≥ 3 (8 mg continuous, n = 99): 0 no.; Blood creatinine increased, any grade (8 mg continuous, n = 99): 10 no.; Blood creatinine increased, grade 1 (8 mg continuous, n = 99): 5 no.; Blood creatinine increased, grade 2 (8 mg continuous, n = 99): 5 no.; Blood creatinine increased, grade ≥ 3 (8 mg continuous, n = 99): 0 no.; Conjunctivitis, any grade (8 mg continuous, n = 99): 13 no.; Conjunctivitis, grade 1 (8 mg continuous, n = 99): 6 no.; Conjunctivitis, grade 2 (8 mg continuous, n = 99): 7 no.; Conjunctivitis, grade ≥ 3 (8 mg continuous, n = 99): 0 no.; Constipation, any grade (8 mg continuous, n = 99): 28 no.; Constipation, grade 1 (8 mg continuous, n = 99): 19 no.; Constipation, grade 2 (8 mg continuous, n = 99): 8 no.
